Results from PMC4561908, “Direct Pore Binding as a Mechanism for Isoflurane Inhibition of the Pentameric Ligand-gated Ion Channel ELIC” (Scientific Reports, 2015).
Read-outs that look alike come from different tables or passages of the source.

How the values were obtained:
ELIC A244T mutant = molecular target: T1, ELIC A244T mutant (Dickeya chrysanthemi, UniProt P0C7B7, A243T); test: Two-electrode voltage clamp of A244T (13′) ELIC mutant in Xenopus laevis oocytes; format: cell-based, Erwinia chrysanthemi
T1 construct: DNA encoding ELIC and a T7 promoter was inserted into the pCMV-mGFP Cterm S11 NeoKan (Theranostech) vector; expressed in transfected cells; host or cells: Xenopus laevis oocytes (cRNA injection)
Text: (§1) To establish the functional relevance of the identified isoflurane-binding sites, we made site-directed mutations, one at a time, at positions 6′ (T237A) and 13′ (A244T). Subsequently, we expressed these mutants in Xenopus laevis oocytes and measured their functional responses to isoflurane (Fig. 3). […] However, these mutant channels, especially T237A, are much less sensitive to isoflurane inhibition than the WT ELIC. […] The functional consequences of these mutations are associated with changes in the hydrophobicity profile and pore radii near positions 6′ and 13′ (Supplementary Fig. 2). It should be noted that the side chains of the hydrophobic residue at the 9′ position are involved in both of the isoflurane-binding sites (Fig. 2c). The fact that the isoflurane inhibition curve shifts an order of magnitude to the right in the T237A mutant indicates the importance of amphipathic interactions at position 6′ for isoflurane inhibition.
Figure 3 Functional evidence of isoflurane binding to the pore. (a) Representative current traces for isoflurane inhibition of WT and two mutants: T237(6′)A; and A244(13′)T. The scale bars are 0.1 μA (vertical) and 30s (horizontal). (b) Agonist propylamine (PPA) concentration-response curves for WT and two mutants indicated in (a). The data were normalized to the maximum current and fit to the Hill equation (solid lines, n ≥ 5). (c) Isoflurane inhibition of WT and the two mutants indicated in (a). The data were normalized to the current at EC20 in the absence of isoflurane and fit to the Hill equation (solid lines, n ≥ 6). The data are reported as the mean ± SEM and error bars less than the symbol size are not visible.
Site-directed mutagenesis of ELIC was introduced with the QuickChange Lightning Kit (Agilent). DNA encoding ELIC and a T7 promoter was inserted into the pCMV-mGFP Cterm S11 NeoKan (Theranostech) vector. […]

ELIC [1] = molecular target: T2, ELIC (Dickeya chrysanthemi, UniProt P0C7B7); test: Two-electrode voltage clamp inhibition of wild-type ELIC expressed in Xenopus laevis oocytes; format: cell-based, Erwinia chrysanthemi
T2 construct: DNA encoding ELIC and a T7 promoter was inserted into the pCMV-mGFP Cterm S11 NeoKan (Theranostech) vector; expressed in transfected cells; host or cells: Xenopus laevis oocytes (cRNA injection)
Text: The scale bars are 0.2 μA (vertical) and 30s (horizontal). The data were normalized to the current at EC20 in the absence of anesthetics and fit to the Hill equation (solid lines, n ≥ 6) for the volatile (b) and intravenous (c) general anesthetics. […] The data are reported as the mean ± SEM and error bars less than the symbol size are not visible.
Site-directed mutagenesis of ELIC was introduced with the QuickChange Lightning Kit (Agilent). DNA encoding ELIC and a T7 promoter was inserted into the pCMV-mGFP Cterm S11 NeoKan (Theranostech) vector. Capped complementary RNA was transcribed with the mMessage mMachine T7 kit (Ambion), purified with the RNeasy kit (Qiagen), injected (10–25 ng) into Xenopus laevis oocytes (stages 5–6), which were maintained at 18 °C in a modified Barth’s solution[40]. […] Oocytes were clamped to a holding potential of −40 to −60 mV. The recording solutions contained 130 mM NaCl, 0.1 mM CaCl2, 10 mM HEPES, pH 7.0 as well as desired concentrations of agonist and anesthetics. Data were collected and processed using Clampex 10 (Molecular Devices). Non-linear regressions were performed using Prism software (Graphpad).
For measuring anesthetic inhibitory effects, saturated solutions of the volatile anesthetics isoflurane, sevoflurane, and halothane were prepared in the recording solution by stirring overnight at 4 °C. Concentrations of these anesthetics in the recording chamber were calibrated using ^19F NMR[63]. The intravenous anesthetics, propofol, etomidate, and thiopental, were dissolved directly into the recording solution.

α4β4 nAChR = test system: α4β4 nAChR; design: method as in ref 11 (a number printed in a supplementary file, which may have a reference list of its own: not looked up in the article's list); details: read-out: IC50 for nAChRs: α4β4 (chicken); cited from earlier work
α4β2 nAChR [2] = details: read-out: IC50 for nAChRs: α4β2 (rat); cited from earlier work
α7 nAChR [3] = test system: α7 nAChR; design: method as in ref 12 (a number printed in a supplementary file, which may have a reference list of its own: not looked up in the article's list); details: read-out: IC50 for nAChRs: α7 (chicken); cited from earlier work
α4β2 nAChR [4] = details: read-out: IC50 for nAChRs: α4β2 (human); cited from earlier work
α2β4 nAChR = details: cited from earlier work
α3β4 nAChR = test system: α3β4 nAChR; design: method as in ref 8 (a number printed in a supplementary file, which may have a reference list of its own: not looked up in the article's list); details: read-out: IC50 for nAChRs: α3β4; cited from earlier work
ELIC T237A mutant = molecular target: T3, ELIC T237A mutant (Dickeya chrysanthemi, UniProt P0C7B7, T236A); test: Two-electrode voltage clamp of T237A (6′) ELIC mutant in Xenopus laevis oocytes; format: cell-based, Erwinia chrysanthemi
T3 construct: DNA encoding ELIC and a T7 promoter was inserted into the pCMV-mGFP Cterm S11 NeoKan (Theranostech) vector; expressed in transfected cells; host or cells: Xenopus laevis oocytes (cRNA injection)
T3 sequence (P0C7B7 1-321 T236A): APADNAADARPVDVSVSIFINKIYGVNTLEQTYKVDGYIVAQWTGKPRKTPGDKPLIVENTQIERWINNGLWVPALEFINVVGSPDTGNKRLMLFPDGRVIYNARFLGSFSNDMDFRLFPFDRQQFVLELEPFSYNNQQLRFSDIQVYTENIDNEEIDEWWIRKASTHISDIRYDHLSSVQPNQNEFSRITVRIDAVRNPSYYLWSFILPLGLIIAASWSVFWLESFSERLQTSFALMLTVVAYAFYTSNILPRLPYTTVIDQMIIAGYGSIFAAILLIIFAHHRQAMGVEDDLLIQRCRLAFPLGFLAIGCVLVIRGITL
Text: as §1
Figure 3 Functional evidence of isoflurane binding to the pore. (a) Representative current traces for isoflurane inhibition of WT and two mutants: T237(6′)A; and A244(13′)T. The scale bars are 0.1 μA (vertical) and 30s (horizontal). (b) Agonist propylamine (PPA) concentration-response curves for WT and two mutants indicated in (a). The data were normalized to the maximum current and fit to the Hill equation (solid lines, n ≥ 5). […]

ELIC [5] = molecular target: T2, ELIC; test: Isoflurane pre-incubation: onset of agonist-induced ELIC current; format: cell-based, Erwinia chrysanthemi; details: mean ± SEM, n = 15
Procedure: Since isoflurane binds to the pore of the resting state of ELIC (Fig. 2a), pre-incubating the oocytes expressing ELIC with isoflurane for a short period of time is expected to enhance the inhibitory effect.
Figure 4 Isoflurane binding stabilized the closed channel. (a) A representative trace showing that pre-incubation with isoflurane (red arrows) slowed the onset rate and increased the maximum inhibition. The vertical and horizontal scale bars represent 20 μA and 30 seconds, representatively. (b) The onset rate of the channel current can be fitted to a single exponential decay function, I = Imax (1−e^(−t/τ)). The fitting results for the onset rate τ and Imax for channels pre-incubated with isoflurane (red line) are 1.73 ± 0.04 s and −0.33 ± 0.02 μA, respectively; and 1.25 ± 0.05 s and −0.41 ± 0.03 μA, respectively, for channels without isoflurane pre-incubation (green line). The fitting parameters are expressed as mean ± SEM (n = 15).
Site-directed mutagenesis of ELIC was introduced with the QuickChange Lightning Kit (Agilent). DNA encoding ELIC and a T7 promoter was inserted into the pCMV-mGFP Cterm S11 NeoKan (Theranostech) vector. Capped complementary RNA was transcribed with the mMessage mMachine T7 kit (Ambion), purified with the RNeasy kit (Qiagen), injected (10–25 ng) into Xenopus laevis oocytes (stages 5–6), which were maintained at 18 °C in a modified Barth’s solution[40]. All procedures involving Xenopus laevis oocytes were approved by the University of Pittsburgh Institutional Animal Care and Use Committee (IACUC), Protocol 14114745. Two-electrode voltage clamp experiments were performed 16–40 hrs after injection using an Oocyte Clamp OC-725C amplifier (Warner Instruments), Digidata 1440A digitizer (Axon Instruments), and a 20 μl chamber (Automate Scientific). Oocytes were clamped to a holding potential of −40 to −60 mV. The recording solutions contained 130 mM NaCl, 0.1 mM CaCl2, 10 mM HEPES, pH 7.0 as well as desired concentrations of agonist and anesthetics. Data were collected and processed using Clampex 10 (Molecular Devices). Non-linear regressions were performed using Prism software (Graphpad).

α4β2 nAChR [6] = test system: α4β2 nAChR; design: method as in ref 6 (a number printed in a supplementary file, which may have a reference list of its own: not looked up in the article's list); details: read-out: IC50 for nAChRs: α4β2 (chicken); cited from earlier work
[7] = anesthetizing concentrations in animals; read-out: Clinical EC50; cited from earlier work
α7 nAChR [8] = test system: α7 nAChR; design: method as in ref 16 (a number printed in a supplementary file, which may have a reference list of its own: not looked up in the article's list); details: read-out: IC50 for nAChRs: α7 (human); cited from earlier work
[9] = WT ELIC, agonist propylamine (PPA) at EC20, oocytes, mean ± SEM, n ≥ 6, read-out: IC50 for ELIC
[10] = channels pre-incubated with isoflurane, single exponential fit
[11] = channels without isoflurane pre-incubation

T2 sequence (P0C7B7 whole entry): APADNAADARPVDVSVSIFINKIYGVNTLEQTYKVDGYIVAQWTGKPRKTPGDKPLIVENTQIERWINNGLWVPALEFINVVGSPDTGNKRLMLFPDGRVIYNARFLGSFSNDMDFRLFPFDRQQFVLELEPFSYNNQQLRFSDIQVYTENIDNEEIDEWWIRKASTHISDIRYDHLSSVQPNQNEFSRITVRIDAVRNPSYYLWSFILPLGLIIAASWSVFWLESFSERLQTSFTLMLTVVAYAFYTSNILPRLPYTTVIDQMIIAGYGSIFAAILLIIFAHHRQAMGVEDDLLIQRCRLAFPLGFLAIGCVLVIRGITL
T1 sequence (P0C7B7 whole entry A243T): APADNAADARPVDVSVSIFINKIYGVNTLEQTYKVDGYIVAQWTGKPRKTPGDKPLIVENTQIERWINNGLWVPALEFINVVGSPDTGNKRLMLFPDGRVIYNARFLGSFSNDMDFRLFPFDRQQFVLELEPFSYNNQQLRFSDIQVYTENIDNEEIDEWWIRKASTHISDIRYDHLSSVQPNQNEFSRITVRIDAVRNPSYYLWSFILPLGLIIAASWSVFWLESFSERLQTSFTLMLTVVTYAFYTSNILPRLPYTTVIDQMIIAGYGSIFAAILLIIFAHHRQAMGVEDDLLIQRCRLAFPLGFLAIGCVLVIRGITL

In the case of CCCN [PPA, propylamine], the “EC50 of agonist PPA compared with WT ELIC” value (ELIC A244T mutant; A244T mutant vs wild-type ELIC) is reported as “nearly identical”.

In the case of CCOC(=O)c1cncn1[C@H](C)c1ccccc1 [etomidate], the IC50 (ELIC [1]) is given as 11.2 ± 1.1 µM, the IC50 (α4β4 nAChR) is given as 33 µM and the IC50 (α4β2 nAChR [2]) is given as 49 µM. The IC50 (α7 nAChR [3]) was 25.3 µM.

In the case of FC(F)(F)C(Cl)Br (centres unmarked) [halothane], the IC50 (α4β2 nAChR [4]) is listed as 27 µM, the IC50 (ELIC [1]; [9]) is listed as 40 ± 4.5 µM and the IC50 (α2β4 nAChR; read-out: IC50 for nAChRs: α2β4 (human)) is listed as 47 µM.

For FC(F)OC(Cl)C(F)(F)F (centres unmarked) [isoflurane], the IC50 (α3β4 nAChR) is listed as 56 µM, the IC50 (α4β2 nAChR [4]) is listed as 82 µM and the IC50 (ELIC A244T mutant) is listed as 61.7 ± 5.5 µM. The “Increase of isoflurane IC50 relative to the WT channel” value (ELIC A244T mutant; A244T vs WT ELIC) was about 3 fold, the IC50 (ELIC [1]; [9]) was 21.9 ± 1.5 µM and the IC50 (α2β4 nAChR; read-out: IC50 for nAChRs: α2β4) was 25 µM. The IC50 (ELIC T237A mutant; T237A (6′) mutant, PPA at EC20, mean ± SEM, n ≥ 6, read-out: IC50 of isoflurane, T237A channel) was 525 ± 58.2 µM, the “Increase of isoflurane IC50 relative to the WT channel” value (ELIC T237A mutant; T237A vs WT ELIC) was “more than an order of magnitude” and the “Imax of channel current” value (ELIC [5]; [10]) was −0.33 ± 0.02 μA. For the same compound, the “Onset rate τ of channel current” value (ELIC [5]; [10]) was 1.73 ± 0.04 s, the “Imax of channel current” value (ELIC [5]; [11]) was −0.41 ± 0.03 μA and the “Onset rate τ of channel current” value (ELIC [5]; [11]) was 1.25 ± 0.05 s.

For CC(C)c1cccc(C(C)C)c1O [propofol], the IC50 (ELIC [1]; [9]) is given as 11.9 ± 1.1 µM, the IC50 (α4β2 nAChR [6]) is given as 19 µM and the EC50 [7] is given as 1.5 µM. The IC50 (α4β2 nAChR [2]) was 4.5 µM.

For FCOC(C(F)(F)F)C(F)(F)F [sevoflurane], the IC50 (ELIC [1]; [9]) was 23.2 ± 1.6 µM.

In the case of CCCC(C)C1(CC)C(=O)NC(=S)NC1=O (centres unmarked) [thiopental], the IC50 (ELIC [1]) is listed as 42.8 ± 1.1 µM, the EC50 [7] is listed as 25 µM and the IC50 (α7 nAChR [8]) is listed as 40.6 µM. The IC50 (α4β2 nAChR [2]) was 26 µM.
